Here are results for two compounds from publication PMC11031820, “Structural determinants of the direct inhibition of GIRK channels by Sigma-1 receptor antagonist” (The Journal of Biological Chemistry, 2024).

What all share (type): cell-based
The target in assay [1] is T1, GIRK4 (Rattus norvegicus, UniProt P48548).
T1 construct: gene Kcnj5
The assay is described as follows: two-electrode voltage clamp in Xenopus oocytes, GIRK4+Gβγ, […] compound. (Two-electrode voltage clamp holds a large cell at a set potential and records current.)

The target of assay [2] is T2, GIRK2 (Mus musculus, UniProt P48542).
T2 construct: gene Kcnj6
T2 sequence (P48542 whole entry): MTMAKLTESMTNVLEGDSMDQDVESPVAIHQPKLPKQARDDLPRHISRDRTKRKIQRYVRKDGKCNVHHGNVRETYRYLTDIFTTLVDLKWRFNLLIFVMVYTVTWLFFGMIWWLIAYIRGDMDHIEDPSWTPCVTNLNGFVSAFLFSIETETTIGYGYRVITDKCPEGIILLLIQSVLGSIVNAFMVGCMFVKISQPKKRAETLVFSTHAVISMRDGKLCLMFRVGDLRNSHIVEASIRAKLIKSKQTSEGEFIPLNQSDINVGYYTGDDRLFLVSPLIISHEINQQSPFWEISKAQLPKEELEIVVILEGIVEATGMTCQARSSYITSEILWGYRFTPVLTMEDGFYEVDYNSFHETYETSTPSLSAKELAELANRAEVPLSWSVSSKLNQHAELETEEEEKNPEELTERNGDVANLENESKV
T2 sequence (P62871 2-340 partner): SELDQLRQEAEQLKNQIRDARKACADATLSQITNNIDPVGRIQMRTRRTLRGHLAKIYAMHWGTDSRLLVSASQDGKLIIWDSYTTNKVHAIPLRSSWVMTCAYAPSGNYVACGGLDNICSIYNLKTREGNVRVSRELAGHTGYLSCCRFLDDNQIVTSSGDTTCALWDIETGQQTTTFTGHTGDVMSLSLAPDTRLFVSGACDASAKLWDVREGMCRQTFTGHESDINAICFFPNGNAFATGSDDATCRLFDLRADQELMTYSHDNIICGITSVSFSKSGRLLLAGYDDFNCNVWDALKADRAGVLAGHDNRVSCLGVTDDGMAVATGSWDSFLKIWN
T2 sequence (P63212 2-68 partner): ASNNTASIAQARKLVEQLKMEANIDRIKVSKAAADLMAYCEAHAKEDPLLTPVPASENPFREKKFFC
Put plainly: two-electrode voltage clamp in Xenopus oocytes, GIRK2+Gβγ, […] compound.

Assay [3] concerns the target T3, GIRK2 (Mus musculus, UniProt P48542, I82L).
T3 construct: gene Kcnj6
The assay is described as follows: two-electrode voltage clamp in Xenopus oocytes, […] compound.

The target of assay [4] is T2, GIRK2. Put plainly: two-electrode voltage clamp in Xenopus oocytes, homomeric GIRK2 co-expressed with Gβγ.
The target of assay [5] is T1, GIRK4. The assay is described as follows: two-electrode voltage clamp in Xenopus oocytes, homomeric GIRK4 co-expressed with Gβγ.
The target of assay [6] is T4, GIRK4 (Rattus norvegicus, UniProt P48548, E147Q).
T4 construct: gene Kcnj5
T4 sequence (P48548 whole entry E147Q): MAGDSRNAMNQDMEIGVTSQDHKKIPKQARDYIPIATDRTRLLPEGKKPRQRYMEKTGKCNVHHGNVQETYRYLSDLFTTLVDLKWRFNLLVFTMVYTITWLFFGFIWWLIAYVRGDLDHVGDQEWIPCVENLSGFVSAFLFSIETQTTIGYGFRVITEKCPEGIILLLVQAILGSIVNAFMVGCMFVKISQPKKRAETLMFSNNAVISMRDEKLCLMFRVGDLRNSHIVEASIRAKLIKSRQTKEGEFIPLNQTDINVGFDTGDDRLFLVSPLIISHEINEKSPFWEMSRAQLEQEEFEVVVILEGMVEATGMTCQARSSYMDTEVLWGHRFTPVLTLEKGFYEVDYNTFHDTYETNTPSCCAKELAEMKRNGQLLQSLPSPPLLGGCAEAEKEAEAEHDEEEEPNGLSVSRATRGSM
T4 sequence (P62871 2-340 partner): as the sequence (P62871 2-340 partner) above
T4 sequence (P63212 2-68 partner): as the sequence (P63212 2-68 partner) above
The assay is described as follows: two-electrode voltage clamp in Xenopus oocytes, […] compound.

T1 sequence (P48548 whole entry): as the sequence (P48548 whole entry E147Q) above, with Q147E counted along it
T1 sequence (P62871 2-340 partner): as the sequence (P62871 2-340 partner) above
T1 sequence (P63212 2-68 partner): as the sequence (P63212 2-68 partner) above
T3 sequence (P48542 whole entry I82L): as the sequence (P48542 whole entry) above, with I82L counted along it
T3 sequence (P62871 2-340 partner): as the sequence (P62871 2-340 partner) above
T3 sequence (P63212 2-68 partner): as the sequence (P63212 2-68 partner) above

As usually defined, the inhibition is the percentage by which the read-out fell short of the control. Read a high inhibition as a strong effect. For the compound `CN1CCN(CCc2ccc(Cl)c(Cl)c2)CC1` [BD1063], the inhibition at 100 µM against GIRK4 [1] amounted to 61.4 ± 2.6%; on GIRK2 [2], 31.1 ± 12%.
As a reminder, the IC50 is the concentration needed to halve the response being measured. `CN(C)CCN(C)CCc1ccc(Cl)c(Cl)c1` [BD1047] showed an inhibition at 100 µM at GIRK2 [3] of 61 ± 1.9%. Further, the results for the IC50 at GIRK2 [4] and against GIRK4 [5] were 75.4 ± 9.7 µM and 17.4 ± 3.7 µM, respectively. Besides, the “two-electrode voltage clamp in Xenopus oocytes, 100 μM compound” value on GIRK4 [6] is given as “It was observed that GIRK4 E147Q maintained the strong inhibition as WT”.
